Experimental data taken from article PMC5080841 (Journal of medicinal chemistry, 2016).

Columns and labels:
[1] = test system: Caenorhabditis elegans infection model; details: previous work; cited from earlier work
[2] = test system: P. aeruginosa; details: previous work; cited from earlier work
[3] = target: T1, P. aeruginosa HemO (Pseudomonas aeruginosa, UniProt O69002); details: read-out: binding affinity for HemO; previous work; cited from earlier work
T1 sequence (O69002 1-198): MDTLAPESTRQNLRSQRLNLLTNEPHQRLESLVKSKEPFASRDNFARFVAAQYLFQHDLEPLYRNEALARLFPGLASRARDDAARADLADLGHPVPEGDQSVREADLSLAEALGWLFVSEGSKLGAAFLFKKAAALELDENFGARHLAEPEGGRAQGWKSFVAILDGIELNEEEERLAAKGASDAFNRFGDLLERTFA

[4] = target: HemO (Pseudomonas aeruginosa, UniProt O69002); test: STD NMR binding epitope; details: relative to the strongest interacting proton

Structure (SMILES)	curing activity in Caenorhabditis elegans infection model [1]	MIC50 against P. aeruginosa [2] [µg/mL]	Kd [3] [µM]	relative STD interaction of the benzylimine proton [4] [%]	relative STD interaction of the para-position proton [4] [%]
CN(C)c1ccc(/C=N/NC(=N)N)cc1.Cl [Compound 1, (E)-2-(4-(Dimethylamino)benzylidene)hydrazine-carboximidamide Hydrochloride]	exhibited curing activity	250	31.2		
Cl.NC(N)=N/N=C/c1cccc(OCc2ccccc2)c1 [Compound 24, (E)-2-(3-(Benzyloxy)benzylidene)hydrazinecarboximidamide Hydrochloride]				100	82
